Laboratory results as given in ChEMBL document CHEMBL4376864, “Binding Loop Substitutions in the Cyclic Peptide SFTI-1 Generate Potent and Selective Chymase Inhibitors” (J Med Chem, 2020).
Bridge positions count the residues as written; N and C are the ends. Square brackets hold non-standard residues; d marks the D form. Peptide text beside a SMILES is read from it. Phe(4-Cl) = N[C@@H](Cc1ccc(Cl)cc1)C(=O)O; Phe(4-I) = N[C@@H](Cc1ccc(I)cc1)C(=O)O; Phe(4-Me) = Cc1ccc(C[C@H](N)C(=O)O)cc1

Tests used:
Chymase [1] = molecular target: T1, Chymase (Homo sapiens, UniProt P23946); assay: Inhibition of recombinant human chymase expressed in Pichia pastoris X-33 cells using NleTDY-pNA as substrate assessed as cleavage of pNA at pH 7.2 and 298 K by spectrophotometry analysis
T1 sequence (P23946 whole entry): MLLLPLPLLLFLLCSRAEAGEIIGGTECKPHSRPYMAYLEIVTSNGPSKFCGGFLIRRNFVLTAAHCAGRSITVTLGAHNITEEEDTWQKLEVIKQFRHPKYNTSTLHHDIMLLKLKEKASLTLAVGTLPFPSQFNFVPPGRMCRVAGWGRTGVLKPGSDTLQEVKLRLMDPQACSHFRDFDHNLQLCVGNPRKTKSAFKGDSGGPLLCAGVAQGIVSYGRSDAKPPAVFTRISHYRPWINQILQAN

Cathepsin G = molecular target: T2, Cathepsin G (Homo sapiens, UniProt P08311); assay: Inhibition of human cathepsin G using Suc-AAPF-MCA as substrate at pH 7.2 and 298 K measured every 60 secs for 600 secs
T2 sequence (P08311 whole entry): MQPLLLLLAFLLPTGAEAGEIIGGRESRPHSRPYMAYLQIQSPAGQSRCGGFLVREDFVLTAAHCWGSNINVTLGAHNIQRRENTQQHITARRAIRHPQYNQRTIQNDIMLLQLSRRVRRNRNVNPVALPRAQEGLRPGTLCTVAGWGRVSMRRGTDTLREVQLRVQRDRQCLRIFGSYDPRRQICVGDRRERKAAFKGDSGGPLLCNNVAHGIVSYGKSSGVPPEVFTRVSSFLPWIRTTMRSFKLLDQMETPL

Chymotrypsin = Chymotrypsin (Homo sapiens, UniProt Q99895+P17538+P40313+Q6GPI1); assay: Inhibition of human chymotrypsin using Suc-AAPF-MCA as substrate at pH 8 and 298 K measured every 60 secs for 600 secs; type: protein assay
Homo sapiens [2] = species on record: Homo sapiens; assay: Selectivity index, ratio of Ki for human cathepsin G using Suc-AAPF-MCA as substrate to Ki for recombinant human chymase expressed in Pichia pastoris X-33 cells using NleTDY-pNA as substrate
Homo sapiens [3] = species on record: Homo sapiens; assay: Selectivity index, ratio of Ki for human chymotrypsin using Suc-AAPF-MCA as substrate to Ki for recombinant human chymase expressed in Pichia pastoris X-33 cells using NleTDY-pNA as substrate
Kallikrein-7 = Kallikrein-7 (Homo sapiens, UniProt P49862); assay: Inhibition of recombinant human KLK7 expressed in Pichia pastoris X-33 using KHLY-pNA as substrate at pH 8 and 298 K measured every 60 secs for 600 secs
Chain of Kallikrein-7 (P49862 whole entry): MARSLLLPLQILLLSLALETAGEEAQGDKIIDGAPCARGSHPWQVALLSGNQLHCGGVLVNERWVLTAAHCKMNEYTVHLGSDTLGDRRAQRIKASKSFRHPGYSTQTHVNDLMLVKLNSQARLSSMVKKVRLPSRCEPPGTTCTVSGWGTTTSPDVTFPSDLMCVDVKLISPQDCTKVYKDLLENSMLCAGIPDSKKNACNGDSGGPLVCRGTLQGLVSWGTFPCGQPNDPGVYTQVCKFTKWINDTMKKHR

Neutrophil elastase = molecular target: T3, Neutrophil elastase (Homo sapiens, UniProt P08246); assay: Inhibition of human neutrophil elastase using MeOSuc-AAPV-MCA as substrate at pH 7.2 and 298 K measured every 60 secs for 600 secs
T3 sequence (P08246 whole entry): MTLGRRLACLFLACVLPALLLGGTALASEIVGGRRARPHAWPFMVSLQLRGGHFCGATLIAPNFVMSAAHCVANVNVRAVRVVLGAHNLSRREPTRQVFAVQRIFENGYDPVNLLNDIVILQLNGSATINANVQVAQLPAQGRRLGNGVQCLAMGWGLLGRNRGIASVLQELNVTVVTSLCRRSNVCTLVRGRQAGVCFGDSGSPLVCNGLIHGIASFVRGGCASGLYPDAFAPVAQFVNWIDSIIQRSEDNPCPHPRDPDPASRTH

[4] = Inhibition of human cationic trypsin using Boc-VPR-MCA as substrate at pH 8 and 298 K measured every 60 secs for 600 secs
Prothrombin = Prothrombin (Homo sapiens, UniProt P00734); assay: Inhibition of human thrombin using Boc-VPR-MCA as substrate at pH 8 and 298 K measured every 60 secs for 600 secs
Coagulation factor XII = molecular target: T4, Coagulation factor XII (Homo sapiens, UniProt P00748); assay: Inhibition of human coagulation factor 12a using Ac-QRFR-pNA as substrate at pH 8 and 298 K measured every 60 secs for 600 secs
T4 sequence (P00748 whole entry): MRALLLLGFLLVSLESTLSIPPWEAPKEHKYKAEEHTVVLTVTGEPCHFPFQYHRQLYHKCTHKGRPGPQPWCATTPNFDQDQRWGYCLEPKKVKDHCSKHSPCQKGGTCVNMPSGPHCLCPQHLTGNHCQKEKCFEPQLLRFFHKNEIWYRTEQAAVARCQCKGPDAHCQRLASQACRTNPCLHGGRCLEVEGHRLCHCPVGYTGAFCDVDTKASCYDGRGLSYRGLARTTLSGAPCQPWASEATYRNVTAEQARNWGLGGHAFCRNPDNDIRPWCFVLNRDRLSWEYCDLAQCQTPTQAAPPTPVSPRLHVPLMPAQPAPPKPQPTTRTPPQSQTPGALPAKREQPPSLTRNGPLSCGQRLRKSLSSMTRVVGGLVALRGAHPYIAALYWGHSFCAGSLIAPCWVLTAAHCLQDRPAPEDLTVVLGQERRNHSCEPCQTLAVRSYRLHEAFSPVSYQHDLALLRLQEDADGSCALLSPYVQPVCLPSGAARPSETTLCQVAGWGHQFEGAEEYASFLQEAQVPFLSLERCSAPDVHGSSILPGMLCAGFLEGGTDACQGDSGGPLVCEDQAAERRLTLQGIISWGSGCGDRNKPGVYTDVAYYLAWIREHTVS

Chymase [5] = molecular target: T1, Chymase; assay: Inhibition of recombinant human chymase expressed in Pichia pastoris X-33 cells assessed as decrease in angiotensin 1 cleavage to angiotensin 2 incubated for 120 mins at 298 K by UPLC-MS analysis

Ki (Chymase [1]) [nM]	Ki (Cathepsin G) [nM]	Ki (Chymotrypsin) [nM]	IC50 (Kallikrein-7) [µM]	IC50 (Neutrophil elastase) [µM]	IC50 [4] [µM]	IC50 (Prothrombin) [µM]	IC50 (Coagulation factor XII) [µM]	IC50 (Chymase [5]) [nM]	IC50 (Chymotrypsin) [µM]	Compound	Ratio Ki (Homo sapiens [2])	Ratio Ki (Homo sapiens [3])
6.6	54	2900	–	–	–	–	–	–	–	N=C(N)NCCC[C@@H]1NC(=O)CNC(=O)[C@H](CC(=O)O)NC(=O)[C@@H]2CCCN2C(=O)[C@H](Cc2ccccc2)NC(=O)[C@@H]2CSSC[C@H](NC1=O)C(=O)N[C@@H](CCC(N)=O)C(=O)N[C@@H](Cc1ccc(O)cc1)C(=O)N[C@@H](CO)C(=O)N[C@@H](CCC(=O)O)C(=O)N1CCC[C@H]1C(=O)N1CCC[C@H]1C(=O)N[C@@H](CCC(=O)O)C(=O)N2 (cyclo(CFPDGRCQYSEPPE); disulfide 1-7)	8.2	440
1.8	150	330	> 10	> 10	> 10	> 10	> 10	33	–	N=C(N)NCCC[C@@H]1NC(=O)CNC(=O)[C@H](CC(=O)O)NC(=O)[C@@H]2CCCN2C(=O)[C@H](Cc2ccccc2)NC(=O)[C@@H]2CSSC[C@H](NC1=O)C(=O)N[C@@H](CCC(N)=O)C(=O)N[C@@H](Cc1ccc(Cl)cc1)C(=O)N[C@@H](CO)C(=O)N[C@@H](CCC(=O)O)C(=O)N1CCC[C@H]1C(=O)N1CCC[C@H]1C(=O)N[C@@H](CCC(=O)O)C(=O)N2 (cyclo(CFPDGRCQ[Phe(4-Cl)]SEPPE); disulfide 1-7)	83	–
19	1200	–	> 10	> 10	> 10	> 10	> 10	290	> 10	N=C(N)NCCC[C@@H]1NC(=O)CNC(=O)[C@H](CC(=O)O)NC(=O)[C@@H]2CCCN2C(=O)[C@H](Cc2ccccc2)NC(=O)[C@@H]2CSSC[C@H](NC1=O)C(=O)N[C@@H](CCC(N)=O)C(=O)N[C@@H](Cc1ccc(I)cc1)C(=O)N[C@@H](CO)C(=O)N[C@@H](CCC(=O)O)C(=O)N1CCC[C@H]1C(=O)N1CCC[C@H]1C(=O)N[C@@H](CCC(=O)O)C(=O)N2 (cyclo(CFPDGRCQ[Phe(4-I)]SEPPE); disulfide 1-7)	–	–
2.2	160	1500	> 10	> 10	> 10	> 10	> 10	–	–	Cc1ccc(C[C@@H]2NC(=O)[C@H](CCC(N)=O)NC(=O)[C@@H]3CSSC[C@H](NC(=O)[C@H](CCC(=O)O)NC(=O)[C@@H]4CCCN4C(=O)[C@@H]4CCCN4C(=O)[C@H](CCC(=O)O)NC(=O)[C@H](CO)NC2=O)C(=O)N[C@@H](Cc2ccccc2)C(=O)N2CCC[C@H]2C(=O)N[C@@H](CC(=O)O)C(=O)NCC(=O)N[C@@H](CCCNC(=N)N)C(=O)N3)cc1 (cyclo(CFPDGRCQ[Phe(4-Me)]SEPPE); disulfide 1-7)	72 to 80	180
